Structures can show the parent of a compound that is named as a salt.

The assay addresses T1, PRS (prolyl-tRNA synthetase) (Homo sapiens, UniProt P07814).
T1 construct: the portion corresponding to PRS in cDNA of EPRS was subcloned; made in house
T1 sequence (P07814 1007-1512 limits assumed): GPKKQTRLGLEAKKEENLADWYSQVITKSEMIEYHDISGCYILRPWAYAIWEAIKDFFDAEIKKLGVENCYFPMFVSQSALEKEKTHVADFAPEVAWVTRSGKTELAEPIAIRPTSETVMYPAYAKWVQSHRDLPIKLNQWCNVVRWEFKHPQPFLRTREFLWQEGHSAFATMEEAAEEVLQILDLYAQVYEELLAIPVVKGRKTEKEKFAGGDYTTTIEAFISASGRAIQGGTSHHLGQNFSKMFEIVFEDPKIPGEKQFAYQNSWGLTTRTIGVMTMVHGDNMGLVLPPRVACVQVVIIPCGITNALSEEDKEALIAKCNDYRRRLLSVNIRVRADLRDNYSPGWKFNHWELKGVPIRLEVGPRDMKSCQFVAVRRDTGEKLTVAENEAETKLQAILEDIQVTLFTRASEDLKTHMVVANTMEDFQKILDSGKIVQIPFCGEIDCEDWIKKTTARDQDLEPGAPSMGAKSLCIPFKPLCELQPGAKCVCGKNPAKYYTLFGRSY
Description: In vitro PRS enzyme activity inhibition experiment ([3H]proline, liquid scintillation). The conditions noted are these: purified PRS protein subcloned from EPRS cDNA; 37° C., 5 to 10 minutes; read-out: PRS IC50. It counts as biochemical. The procedure: In order to confirm the biological activities of the compounds prepared in Examples, % inhibition or IC50 values of PRS enzyme ([…]) activities were calculated.
Specifically, the portion corresponding to PRS in cDNA of EPRS was subcloned, and the obtained high-purity PRS protein was purified and used in the experiment. The compounds (1 μM) prepared in Examples were added into the reaction buffer (20 mM KPO4 (pH 7.4), 6 mM MgAc, 5 mM ATP, […] tRNA, 0.5 mM DTT, 20 mCi[^3H]proline (1 mCi/mL)) and allowed to react at 37° C. for 5 to 10 minutes. The reaction was terminated with 3M paper that was previously dried by addition of 5% TCA. The radioactivity was measured using a liquid scintillation counter.
IC50 values of the respective compounds were calculated and analyzed using Microsoft Excel or Sigma Plot 8.0. In Table 1, the results are divided into A, B and C according to the range of IC50. The case where the derived IC50 is 100 nM or less is represented by “A”, the case where the IC50 is 100 to 500 nM is represented by “B”, and the case where the IC50 is 500 nM or higher is represented by “C”.
Turning to `OC(C[C@H]1NCCC[C@@H]1O)Cn1cnc2c(F)c(Br)ccc21` (stereo partly drawn) [Example 74, (2R,3S)-2-(3-(5-bromo-4-fluoro-1H-benzo[d]imidazol-1-yl)-2-hydroxypropyl)piperidin-3-ol], the IC50 is > 500 nM.

In the case of `O=C(C[C@H]1NCCC[C@@H]1O)Cn1ncc2cc(Cl)cnc21` [Example 98, 1-(5-chloro-1H-pyrazolo[3,4-b]pyridin-1-yl)-3-((2R,3S)-3-hydroxypiperidin-2-yl)propan-2-one], the half-inhibitory concentration (IC50) is > 500 nM.

Regarding `O=C(C[C@H]1NCCC[C@@H]1O)Cn1cnc2cccnc21` [Example 34, 1-((2R,3S)-3-hydroxypiperidin-2-yl)-3-(3H-imidazo[4,5-b]pyridin-3-yl)propan-2-one], the IC50 lay within 100 to 500 nM.

On to `OCc1nc2cc(Cl)c(Cl)cc2n1C/C(C[C@H]1NCCC[C@@H]1O)=N/O` [Example 65, 1-(5,6-dichloro-2-(hydroxymethyl)-1H-benzo[d]imidazol-1-yl)-3-((2R,3S)-3-hydroxypiperidin-2-yl)propan-2-one oxime], for which the half-inhibitory concentration (IC50) is > 500 nM.

As for `Cc1c(Cl)ccc2c1ncn2CC(O)C[C@H]1NCCC[C@@H]1O` (stereo partly drawn) [Example 76, (2R,3S)-2-(3-(5-chloro-4-methyl-1H-benzo[d]imidazol-1-yl)-2-hydroxypropyl)piperidin-3-ol], the IC50 is > 500 nM.

`C[C@@H](O)c1nc2ccccc2n1CC(=O)C[C@H]1NCCC[C@@H]1O` [Example 54, 1-(2-((R)-1-hydroxyethyl)-1H-benzo[d]imidazol-1-yl)-3-((2R,3S)-3-hydroxypiperidin-2-yl)propan-2-one]: the IC50 was > 500 nM.

Regarding `O=C(C[C@H]1NCCC[C@@H]1O)Cn1cnc2c(Cl)cc(Cl)nc21` [Example 41, 1-(5,7-dichloro-3H-imidazo[4,5-b]pyridin-3-yl)-3-((2R,3S)-3-hydroxypiperidin-2-yl)propan-2-one], the IC50 is < 100 nM.

For `O=C(C[C@H]1NCCC[C@@H]1O)Cn1cnc2c1CCCC2` [Example 45, 1-((2R,3S)-3-hydroxypiperidin-2-yl)-3-(4,5,6,7-tetrahydro-1H-benzo[d]imidazol-1-yl)propan-2-one], the IC50 lay in the range of 100 to 500 nM.

In the case of `O/N=C(/C[C@H]1NCCC[C@@H]1O)Cn1cnc2ncc(Br)cc21` [Example 66, 1-(6-bromo-1H-imidazo[4,5-b]pyridin-1-yl)-3-((2R,3S)-3-hydroxypiperidin-2-yl)propan-2-one oxime], the IC50 is > 500 nM.

In the case of `Cc1ccc2c(cnn2CC(=O)C[C@H]2NCCC[C@@H]2O)c1Br` [Example 97, 1-(4-bromo-5-methyl-1H-indazol-1-yl)-3-((2R,3S)-3-hydroxypiperidin-2-yl)propan-2-one], the IC50 lay in the range of 100 to 500 nM.

As to `OC(C[C@H]1NCCC[C@@H]1O)Cn1cnc2c(Cl)c(Cl)ccc21` (stereo partly drawn) [Example 75, (2R,3S)-2-(3-(4,5-dichloro-1H-benzo[d]imidazol-1-yl)-2-hydroxypropyl)piperidin-3-ol], the IC50 was > 500 nM.

With `Cc1nc2c(F)c(F)ccc2n1CC(=O)C[C@H]1NCCC[C@@H]1O` [Example 47, 1-(4,5-difluoro-2-methyl-1H-benzo[d]imidazol-1-yl)-3-((2R,3S)-3-hydroxypiperidin-2-yl)propan-2-one], the IC50 is > 500 nM.

Regarding `O=C(C[C@H]1NCCC[C@@H]1O)Cn1cnc2c(Cl)ncnc21` [Example 44, 1-(6-chloro-9H-purin-9-yl)-3-((2R,3S)-3-hydroxypiperidin-2-yl)propan-2-one hydrochloride salt], the 50% inhibitory concentration (IC50) is > 500 nM.

As for `O=C(C[C@H]1NCCC[C@@H]1O)Cn1ncc2cc(Cl)ccc21` [Example 96, 1-(5-chloro-1H-indazol-1-yl)-3-((2R,3S)-3-hydroxypiperidin-2-yl)propan-2-one], the IC50 is > 500 nM.

Turning to `Cc1c(Cl)cnc2c1ncn2CC(O)C[C@H]1NCCC[C@@H]1O` (stereo partly drawn) [Example 77, (2R,3S)-2-(3-(6-chloro-7-methyl-3H-imidazo[4,5-b]pyridin-3-yl)-2-hydroxypropyl)piperidin-3-ol], the IC50 was > 500 nM.

`C[C@H](O)c1nc2ccccc2n1CC(=O)C[C@H]1NCCC[C@@H]1O` [Example 55, 1-(2-((S)-1-hydroxyethyl)-1H-benzo[d]imidazol-1-yl)-3-((2R,3S)-3-hydroxypiperidin-2-yl)propan-2-one]: the concentration for half-maximal inhibition (IC50) is > 500 nM.

With `O=C(C[C@H]1NCCC[C@@H]1O)Cn1c(CCO)nc2ccc(F)cc21` [Example 53, 1-(6-fluoro-2-(2-hydroxyethyl)-1H-benzo[d]imidazol-1-yl)-3-((2R,3S)-3-hydroxypiperidin-2-yl)propan-2-one], the IC50 was > 500 nM.

For `O/N=C(/C[C@H]1NCCC[C@@H]1O)Cn1cnc2cc(Cl)c(Cl)cc21` [Example 64, 1-(5,6-dichloro-1H-benzo[d]imidazol-1-yl)-3-((2R,3S)-3-hydroxypiperidin-2-yl)propan-2-one oxime], the IC50 was > 500 nM.

As for `OC(C[C@H]1NCCC[C@@H]1O)Cn1cnc2c(C(F)(F)F)c(Br)ccc21` (stereo partly drawn) [Example 72, (2R,3S)-2-(3-(5-bromo-4-(trifluoromethyl)-1H-benzo[d]imidazol-1-yl)-2-hydroxypropyl)piperidin-3-ol], the concentration for half-maximal inhibition (IC50) was > 500 nM.

Regarding `Cc1c(Br)ccc2c1ncn2CC(O)(C[C@H]1NCCC[C@@H]1O)C(F)(F)F` (stereo partly drawn) [Example 85, (2R,3S)-2-(2-((5-bromo-4-methyl-1H-benzo[d]imidazol-1-yl)methyl)-3,3,3-trifluoro-2-hydroxypropyl)piperidin-3-ol], the IC50 is > 500 nM.

For the molecule `Cc1nc2ncccc2n1CC(=O)C[C@H]1NCCC[C@@H]1O` [Example 49, 1-((2R,3S)-3-hydroxypiperidin-2-yl)-3-(2-methyl-1H-imidazo[4,5-b]pyridin-1-yl)propan-2-one], the IC50 is > 500 nM.

Consider `O=C(C[C@H]1NCCC[C@@H]1O)Cn1c(CO)nc2ncccc21` [Example 68, 1-(2-(hydroxymethyl)-1H-imidazo[4,5-b]pyridin-1-yl)-3-((2R,3S)-3-hydroxypiperidin-2-yl)propan-2-one], for which the concentration for half-maximal inhibition (IC50) fell in the range of 100 to 500 nM.

For the molecule `Cc1ccc2c(ncn2CC(O)C[C@H]2NCCC[C@@H]2O)c1Br` (stereo partly drawn) [Example 73, (2R,3S)-2-(3-(4-bromo-5-methyl-1H-benzo[d]imidazol-1-yl)-2-hydroxypropyl)piperidin-3-ol], the IC50 was > 500 nM.

Regarding `O=C(C[C@H]1NCCC[C@@H]1O)Cn1ccc2cc(Cl)cnc21` [Example 91, 1-(5-chloro-1H-pyrrolo[2,3-b]pyridin-1-yl)-3-((2R,3S)-3-hydroxypiperidin-2-yl)propan-2-one], the IC50 was in the range of 100 to 500 nM.

`COCc1nc2cc(Cl)c(Cl)cc2n1CC(=O)C[C@H]1NCCC[C@@H]1O` [Example 63, 1-(5,6-dichloro-2-(methoxymethyl)-1H-benzo[d]imidazol-1-yl)-3-((2R,3S)-3-hydroxypiperidin-2-yl)propan-2-one]: the IC50 is > 500 nM.

On to `O=C(C[C@H]1NCCC[C@@H]1O)Cn1cnc2nc(Br)ccc21` [Example 29, 1-(5-bromo-1H-imidazo[4,5-b]pyridin-1-yl)-3-((2R,3S)-3-hydroxypiperidin-2-yl)propan-2-one], for which the half-maximal inhibitory concentration (IC50) was > 500 nM.

In the case of `CO/N=C(/C[C@H]1NCCC[C@@H]1O)Cn1cnc2cc(Cl)c(Cl)cc21` [Example 67, 1-(5,6-dichloro-1H-benzo[d]imidazol-1-yl)-3-((2R,3S)-3-hydroxypiperidin-2-yl)propan-2-one O-methyl oxime], the concentration for half-maximal inhibition (IC50) is > 500 nM.

For the molecule `OC(C[C@H]1NCCC[C@@H]1O)Cn1cnc2c(Cl)c(Br)cnc21` (stereo partly drawn) [Example 79, (2R,3S)-2-(3-(6-bromo-7-chloro-3H-imidazo[4,5-b]pyridin-3-yl)-2-hydroxypropyl)piperidin-3-ol], the IC50 was 100 to 500 nM.

As for `O=C(C[C@H]1NCCC[C@@H]1O)Cn1cnc2cc(C(=O)O)ncc21` [Example 43, 3-(3-((2R,3S)-3-hydroxypiperidin-2-yl)-2-oxopropyl)-3H-imidazo[4,5-c]pyridine-6-carboxylic acid hydrochloride salt], the IC50 was > 500 nM.

Turning to `O=C(C[C@H]1NCCC[C@@H]1O)Cn1cnc2ncc(Br)cc21` [Example 31, 1-(6-bromo-1H-imidazo[4,5-b]pyridin-1-yl)-3-((2R,3S)-3-hydroxypiperidin-2-yl)propan-2-one], the half-inhibitory concentration (IC50) is > 500 nM.

As to `CNC(C[C@H]1NCCC[C@@H]1O)Cn1cnc2cc(Cl)c(Cl)cc21` (stereo partly drawn) [Example 86, (2R,3S)-2-(3-(5,6-dichloro-1H-benzo[d]imidazol-1-yl)-2-(methylamino)propyl)piperidin-3-ol], the concentration for half-maximal inhibition (IC50) is > 500 nM.

As a reminder, the IC50 is the concentration at which inhibition is half-maximal.
